Measured values taken from US10336762B2 (priority 2017, dated 2019).
pEC50, pIC50: −log10 of the molar value. Read-outs that look alike come from different tables or passages of the source.

Assays:
IRAK4 enzyme = IRAK4 enzyme (Homo sapiens (Human), UniProt Q9NWZ3); assay: biochemical; type: biochemical; conditions: IRAK4 enzyme, 500 μM ATP
TNFα = assay: cells; type: cell-based, human; conditions: LPS-stimulated human monocytes, read-out: EC50 TNF
[1] = Homo sapiens, Monocyte, TNFα by TR-FRET
[2] = Homo sapiens, Monocyte, TNFα content

IRAK4 enzyme, sequence (Q9NWZ3 whole entry): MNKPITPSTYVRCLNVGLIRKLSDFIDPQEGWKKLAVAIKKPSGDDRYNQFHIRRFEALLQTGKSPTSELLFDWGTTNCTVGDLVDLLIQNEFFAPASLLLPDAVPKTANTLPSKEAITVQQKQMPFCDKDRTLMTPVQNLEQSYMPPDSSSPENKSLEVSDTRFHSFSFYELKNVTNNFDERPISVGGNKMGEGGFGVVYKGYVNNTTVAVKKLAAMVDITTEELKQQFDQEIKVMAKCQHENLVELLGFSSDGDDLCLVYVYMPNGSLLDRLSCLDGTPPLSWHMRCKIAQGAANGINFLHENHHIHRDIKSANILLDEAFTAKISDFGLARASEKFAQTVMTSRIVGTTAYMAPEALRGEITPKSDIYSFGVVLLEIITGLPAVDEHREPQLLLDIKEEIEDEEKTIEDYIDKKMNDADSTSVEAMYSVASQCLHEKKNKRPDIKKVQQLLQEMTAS

For `N#Cc1cnn2c(-c3cc(NC45CCC(O)(CC4)CC5)c(C(=O)NCC(=O)N4CCC5(COC5)C4)cn3)ccc2c1` [Example 799, 6-(3-cyanopyrrolo[1,2-b]pyridazin-7-yl)-4-((4-hydroxybicyclo[2.2.2]octan-1-yl)amino)-N-(2-oxo-2-(2-oxa-6-azaspiro[3.4]octan-6-yl)ethyl)nicotinamide], the pIC50 (IRAK4 enzyme; TR-FRET) was greater than 9.00 and the pEC50 (TNFα; [1]) was 7.21.

Compound `CC(C)(O)[C@H](F)CNC(=O)c1cnc(-c2ccc3cc(C#N)cnn23)cc1NC1CN(S(C)(=O)=O)C1` [Example 98, (R)-6-(3-cyanopyrrolo[1,2-b]pyridazin-7-yl)-N-(2-fluoro-3-hydroxy-3-methylbutyl)-4-((1-(methylsulfonyl)azetidin-3-yl)amino)nicotinamide] has a pIC50 (IRAK4 enzyme; TR-FRET) of 8.70 and a pEC50 (TNFα; [2]) of 6.45.

For `CC1(Nc2cc(-c3ccc4cc(C#N)cnn34)ncc2C(=O)NC[C@@H](F)C(C)(C)O)COC1` [Example 1, (R)-6-(3-cyanopyrrolo[1,2-b]pyridazin-7-yl)-N-(2-fluoro-3-hydroxy-3-methylbutyl)-4-((3-methyloxetan-3-yl)amino)nicotinamide], the pIC50 (IRAK4 enzyme; TR-FRET) was greater than 9.00 and the pEC50 (TNFα; [2]) was 7.49.

Work on `CC(C)(O)[C@H](F)CNC(=O)c1cnc(-c2ccc3cc(C#N)cnn23)cc1N[C@H]1C[C@H](CNC(=O)C(F)(F)F)C1` [Example 542, 6-(3-cyanopyrrolo[1,2-b]pyridazin-7-yl)-N—((R)-2-fluoro-3-hydroxy-3-methylbutyl)-4-(((1r,3R)-3-((2,2,2-trifluoroacetamido)methyl)cyclobutyl)amino)nicotinamide] yielded a pIC50 (IRAK4 enzyme; TR-FRET (HTRF)) greater than 9.00 and a pEC50 (TNFα; [2]) of 7.57.

For `CC(C)Nc1cc(-c2ccc3cc(C#N)cnn23)ncc1C(=O)NC[C@@H](F)C(C)(C)F` [Example 531, (R)-6-(3-cyanopyrrolo[1,2-b]pyridazin-7-yl)-N-(2,3-difluoro-3-methylbutyl)-4-(isopropylamino)nicotinamide], the pIC50 (IRAK4 enzyme; TR-FRET (HTRF)) was greater than 9.00 and the pEC50 (TNFα; [2]) was 7.47.

`CC(C)(O)[C@H](F)CNC(=O)c1cnc(-c2ccc3cc(C#N)cnn23)cc1NC1C2CCC1CNC2` (single isomer, unassigned) [Example 28] showed a pIC50 (IRAK4 enzyme; TR-FRET) greater than 9.00 and a pEC50 (TNFα; TNFα content) of 6.96.

`CC(C)(O)[C@H](F)CNC(=O)c1cnc(-c2ccc3cc(C#N)cnn23)cc1N[C@@H]1[C@@H]2COC[C@@H]21` [Example 148, 4-(((1R,5S,6s)-3-oxabicyclo[3.1.0]hexan-6-yl)amino)-6-(3-cyano-pyrrolo[1,2-b]pyridazin-7-yl)-N-((R)-2-fluoro-3-hydroxy-3-methylbutyl)nicotinamide] gave a pIC50 (IRAK4 enzyme; TR-FRET) of 8.70 and a pEC50 (TNFα; [2]) of 6.69.

With `CC1(NC(=O)c2cnc(-c3ccc4cc(C#N)cnn34)cc2NC23CCC(O)(CC2)CC3)CC1` [Example 950, 6-(3-cyanopyrrolo[1,2-b]pyridazin-7-yl)-4-((4-hydroxybicyclo[2.2.2]octan-1-yl)amino)-N-(1-methylcyclopropyl) nicotinamide] the pIC50 (IRAK4 enzyme; TR-FRET) was 9.00 and the pEC50 (TNFα; [1]) was 7.15.

With `CC(C)(O)[C@H](F)CNC(=O)c1cnc(-c2ccc3cc(C#N)cnn23)cc1NC1CNC(=O)C1` (stereo partly drawn) [Example 8, 6-(3-cyanopyrrolo[1,2-b]pyridazin-7-yl)-N-((R)-2-fluoro-3-hydroxy-3-methylbutyl)-4-((5-oxopyrrolidin-3-yl)amino)nicotinamide] the pIC50 (IRAK4 enzyme; TR-FRET) was greater than 9.00 and the pEC50 (TNFα; [2]) was 6.11.

`COc1cccc(Nc2cc(-c3ccc4cc(C#N)cnn34)ncc2C(=O)NC[C@@H](F)C(C)(C)O)c1` [Example 606, (R)-6-(3-cyanopyrrolo[1,2-b]pyridazin-7-yl)-N-(2-fluoro-3-hydroxy-3-methylbutyl)-4-((3-methoxyphenyl)amino) nicotinamide] gave a pIC50 (IRAK4 enzyme; TR-FRET (HTRF)) of 9.00 and a pEC50 (TNFα; [2]) of 7.48.

In the case of `CC1(F)CN(C(=O)C23CCC(Nc4cc(-c5ccc6cc(C#N)cnn56)ncc4C(=O)NC[C@@H](F)C(C)(C)O)(CC2)CC3)C1` [Example 394, (R)-6-(3-cyanopyrrolo[1,2-b]pyridazin-7-yl)-N-(2-fluoro-3-hydroxy-3-methylbutyl)-4-((4-(3-fluoro-3-methylazetidine-1-carbonyl)bicyclo[2.2.2]octan-1-yl)amino) nicotinamide], the pIC50 (IRAK4 enzyme; TR-FRET) was 9.00 and the pEC50 (TNFα; [2]) was 7.17.

With `CC(C)(O)[C@H](F)CNC(=O)c1cnc(-c2ccc3cc(C#N)cnn23)cc1N[C@H]1C[C@H](CNC2COC2)C1` [Example 702, 6-(3-cyanopyrrolo[1,2-b]pyridazin-7-yl)-N—((R)-2-fluoro-3-hydroxy-3-methylbutyl)-4-(((1r,3R)-3-((oxetan-3-ylamino)methyl)cyclobutyl)amino)nicotinamide] the pIC50 (IRAK4 enzyme; TR-FRET (HTRF)) was greater than 9.00 and the pEC50 (TNFα; [2]) was 6.92.

Work on `CC(C)(O)[C@H](F)CNC(=O)c1cnc(-c2ccc3cc(C#N)cnn23)cc1N[C@H]1CC[C@@H](O)C1` [Example 520, 6-(3-cyanopyrrolo[1,2-b]pyridazin-7-yl)-N-((R)-2-fluoro-3-hydroxy-3-methylbutyl)-4-(((1S,3R)-3-hydroxycyclopentyl)amino)nicotinamide] yielded a pIC50 (IRAK4 enzyme; TR-FRET (HTRF)) greater than 9.00 and a pEC50 (TNFα; [2]) of 7.35.

With `CC(C)(O)[C@H](F)CNC(=O)c1cnc(-c2ccc3cc(C#N)cnn23)cc1N[C@@H]1CC[C@@H](c2cnco2)OC1` [Example 639, 6-(3-cyanopyrrolo[1,2-b]pyridazin-7-yl)-N-((R)-2-fluoro-3-hydroxy-3-methylbutyl)-4-(((3R,6S)-6-(oxazol-5-yl)tetrahydro-2H-pyran-3-yl)amino)nicotinamide] the pIC50 (IRAK4 enzyme; TR-FRET (HTRF)) was 9.00 and the pEC50 (TNFα; [2]) was 7.37.

`COC(=O)NC(C)(C)CCCNc1cc(-c2ccc3cc(C#N)cnn23)ncc1C(=O)NC[C@@H](F)C(C)(C)O` [Example 726, (R)-methyl (5-((2-(3-cyanopyrrolo[1,2-b]pyridazin-7-yl)-5-((2-fluoro-3-hydroxy-3-methylbutyl)carbamoyl)pyridin-4-yl)amino)-2-methylpentan-2-yl) carbamate] was tested, and the pIC50 (IRAK4 enzyme; TR-FRET (HTRF)) was 8.40 and the pEC50 (TNFα; [2]) was 6.77.

`COc1cncc(Nc2cc(-c3ccc4cc(C#N)cnn34)ncc2C(=O)NC[C@@H](F)C(C)(C)O)c1` [Example 605, (R)-6-(3-cyanopyrrolo[1,2-b]pyridazin-7-yl)-N-(2-fluoro-3-hydroxy-3-methyl-butyl)-4-((5-methoxy-pyridin-3-yl)amino) nicotinamide] showed a pIC50 (IRAK4 enzyme; TR-FRET (HTRF)) greater than 9.00 and a pEC50 (TNFα; [2]) of 7.62.

For `CC(C)Nc1cc(-c2ccc3cc(C#N)cnn23)ncc1C(=O)N[C@H]1CC[C@H](N)CC1` [Example 12, N-((1r,4r)-4-aminocyclohexyl)-6-(3-cyanopyrrolo[1,2-b]pyridazin-7-yl)-4-(isopropylamino)nicotinamide], the pIC50 (IRAK4 enzyme; TR-FRET) was 8.70 and the pEC50 (TNFα; [2]) was 7.01.

`CC(C)NC(=O)c1cnc(-c2ccc3cc(C#N)cnn23)cc1NC(C)C` [Example 369, 6-(3-cyanopyrrolo[1,2-b]pyridazin-7-yl)-N-isopropyl-4-(isopropylamino)nicotinamide] showed a pIC50 (IRAK4 enzyme; TR-FRET) of 7.80 and a pEC50 (TNFα; [2]) of 6.04.

`CC(C)(O)[C@H](F)CNC(=O)c1cnc(-c2ccc3cc(C#N)cnn23)cc1Nc1ccc(OC2COC2)nc1` [Example 649, (R)-6-(3-cyanopyrrolo[1,2-b]pyridazin-7-yl)-N-(2-fluoro-3-hydroxy-3-methylbutyl)-4-((6-(oxetan-3-yloxy)pyridin-3-yl)amino)nicotinamide] was tested, and the pIC50 (IRAK4 enzyme; TR-FRET (HTRF)) was 7.68 and the pEC50 (TNFα; [2]) was less than 5.00.

Compound `COC(=O)N1Cc2ccc(Nc3cc(-c4ccc5cc(C#N)cnn45)ncc3C(=O)NC[C@@H](F)C(C)(C)O)cc2C1` [Example 196, (R)-methyl 5-((2-(3-cyanopyrrolo[1,2-b]pyridazin-7-yl)-5-((2-fluoro-3-hydroxy-3-methylbutyl)carbamoyl)pyridin-4-yl)amino)isoindoline-2-carboxylate] has a pIC50 (IRAK4 enzyme; TR-FRET) of 8.70 and a pEC50 (TNFα; [2]) of 7.28.

Compound `COC(=O)CNC(=O)c1cnc(-c2ccc3cc(C#N)cnn23)cc1NC12CCC(O)(CC1)CC2` [Example 341, methyl (6-(3-cyano-pyrrolo[1,2-b]pyridazin-7-yl)-4-((4-hydroxy-bicyclo[2.2.2]octan-1-yl)amino)nicotinoyl) glycinate] has a pIC50 (IRAK4 enzyme; TR-FRET) greater than 9.00 and a pEC50 (TNFα; [2]) of 7.80.

`CC(C)(C)OC(=O)CNC(=O)c1cnc(-c2ccc3cc(C#N)cnn23)cc1NC12CCC(O)(CC1)CC2` [Example 808, tert-butyl (6-(3-cyano-pyrrolo[1,2-b]pyridazin-7-yl)-4-((4-hydroxy-bicyclo[2.2.2]octan-1-yl)amino)nicotinoyl) glycinate] was tested, and the pIC50 (IRAK4 enzyme; TR-FRET) was greater than 9.00 and the pEC50 (TNFα; [1]) was 7.82.

`N#Cc1cnn2c(-c3cc(NC45CCC(O)(CC4)CC5)c(C(=O)NCC(=O)N4CC[C@@H](O)C4)cn3)ccc2c1` [Example 953, (R)-6-(3-cyanopyrrolo[1,2-b]pyridazin-7-yl)-4-((4-hydroxybicyclo[2.2.2]octan-1-yl)amino)-N-(2-(3-hydroxypyrrolidin-1-yl)-2-oxoethyl) nicotinamide] showed a pIC50 (IRAK4 enzyme; TR-FRET) greater than 9.00 and a pEC50 (TNFα; [1]) of 6.62.

`N#Cc1cnn2c(-c3cc(NC45CCC(O)(CC4)CC5)c(C(=O)NC4(CF)CC4)cn3)ccc2c1` [Example 964, 6-(3-cyanopyrrolo[1,2-b]pyridazin-7-yl)-N-(1-(fluoromethyl)cyclo-propyl)-4-((4-hydroxy-bicyclo[2.2.2]octan-1-yl)amino)nicotinamide] showed a pIC50 (IRAK4 enzyme; TR-FRET) of 9.00 and a pEC50 (TNFα; [1]) of 7.17.

`CC(C)(O)[C@H](F)CNC(=O)c1cnc(-c2ccc3cc(C#N)cnn23)cc1Nc1ccc2ncccc2c1` [Example 820, (R)-6-(3-cyanopyrrolo[1,2-b]pyridazin-7-yl)-N-(2-fluoro-3-hydroxy-3-methylbutyl)-4-(quinolin-6-ylamino)nicotinamide] gave a pIC50 (IRAK4 enzyme; TR-FRET) greater than 9.00 and a pEC50 (TNFα; [1]) of 7.23.

Compound `COC(=O)NC1CCC(NC(=O)c2cnc(-c3ccc4cc(C#N)cnn34)cc2N[C@H]2CC[C@H](NC(=O)OC)CC2)CC1` (stereo partly drawn) [Example 300, methyl ((1R,4r)-4-(6-(3-cyanopyrrolo[1,2-b]pyridazin-7-yl)-4-(((1r,4R)-4-((methoxycarbonyl)amino)cyclohexyl)amino)nicotinamido)cyclohexyl) carbamate] has a pIC50 (IRAK4 enzyme; TR-FRET) of 9.00 and a pEC50 (TNFα; [2]) of 7.12.
